Measurements: patent US4443436A, “C-20-Modified macrolide derivatives of the macrolide antibiotics tylosin, desmycosin, macrocin, and lactenocin” (Eli Lilly and Company, priority 1982, dated 1984)
In brackets after ≈: the same amount, converted by molar mass. Like-named read-outs stand apart in the source and are kept apart here.

Experiments:
[1] = tested on: Staphylococcus aureus X1.1; assay: MIC, standard agar-dilution assay, Staphylococcus aureus X1.1; assay type: cell-based
[2] = tested on: Staphylococcus aureus V41; assay: MIC, standard agar-dilution assay, Staphylococcus aureus V41; assay type: cell-based
[3] = tested on: Staphylococcus aureus X400; assay: MIC, standard agar-dilution assay, Staphylococcus aureus X400; assay type: cell-based
[4] = tested on: Staphylococcus aureus S13E; assay: MIC, standard agar-dilution assay, Staphylococcus aureus S13E; assay type: cell-based
[5] = tested on: Staphylococcus epidermidis EPI1; assay: MIC, standard agar-dilution assay, Staphylococcus epidermidis EPI1; assay type: cell-based
[6] = tested on: Staphylococcus epidermidis EPI2; assay: MIC, standard agar-dilution assay, Staphylococcus epidermidis EPI2; assay type: cell-based
[7] = tested on: Streptococcus pneumoniae Park I; assay: microbe, parasite or virus in culture; assay type: cell-based; conditions: Streptococcus pneumoniae Park I, agar dilution
[8] = tested on: Streptococcus Group D X66; assay: MIC, standard agar-dilution assay, Streptococcus Group D X66; assay type: cell-based; conditions: Streptococcus Group D X66, agar dilution
Streptococcus Group 9960 = assay: MIC, standard agar-dilution assay, Streptococcus Group 9960; assay type: cell-based; conditions: Streptococcus Group 9960, agar dilution
[9] = tested on: Haemophilus influenzae Holt; assay: MIC, standard agar-dilution assay, Haemophilus influenzae Holt; assay type: cell-based; conditions: Haemophilus influenzae Holt, ampicillin-sensitive strain
[10] = tested on: Haemophilus influenzae R252; assay: MIC, standard agar-dilution assay, Haemophilus influenzae R252; assay type: cell-based; conditions: Haemophilus influenzae R252, ampicillin-resistant strain
Staphylococcus aureus = assay: MIC, broth-dilution microtiter test, Staphylococcus aureus; assay type: cell-based
From the text: (§1) The MIC's in Table X were obtained using conventional broth-dilution microtiter tests.

Streptococcus bovis 80 = assay: MIC, broth-dilution microtiter test, Streptococcus bovis 80; assay type: cell-based; conditions: Streptococcus bovis 80, broth-dilution microtiter
From the text: as §1

[11] = tested on: Pasteurella multocida 17E; assay: MIC, broth-dilution microtiter test, Pasteurella multocida 17E; assay type: cell-based; conditions: Pasteurella multocida 17E, bovine isolate, broth-dilution microtiter
From the text: as §1

[12] = tested on: Pasteurella multocida 60A; assay: MIC, broth-dilution microtiter test, Pasteurella multocida 60A; assay type: cell-based; conditions: Pasteurella multocida 60A, avian isolate, broth-dilution microtiter
From the text: as §1

[13] = tested on: Pasteurella hemolytica 22C; assay: MIC, broth-dilution microtiter test, Pasteurella hemolytica 22C; assay type: cell-based; conditions: Pasteurella hemolytica 22C, broth-dilution microtiter
From the text: as §1

Mycoplasma gallisepticum = assay: MIC, broth-dilution microtiter test, Mycoplasma gallisepticum; assay type: cell-based
From the text: as §1

Mycoplasma hyorhinis = assay: MIC, broth-dilution microtiter test, Mycoplasma hyorhinis; assay type: cell-based
From the text: as §1

[14] = tested on: Streptococcus pyogenes C203; assay: In vivo protection of mice experimentally infected with S. pyogenes C203; conditions: mice, doses given 1 and 4 hours post-infection
Method: The C-20 modified derivatives of this invention have shown in vivo antimicrobial activity against experimentally-induced infections in laboratory animals. When two doses of test compound were administered to mice experimentally infected with S. pyogenes C203, the activity observed was measured as an ED50 value [effective dose in mg/kg to protect 50% of the test animals: see Warren Wick, et al., J. Bacteriol. 81, 233-235 (1961)].

[15] = tested on: Streptococcus pyogenes C203; assay: MIC, standard agar-dilution assay, Streptococcus pyogenes C203; assay type: cell-based
[16] = Staphylococcus aureus X1.1, agar dilution
[17] = Staphylococcus aureus V41, penicillin-resistant strain, agar dilution
[18] = Staphylococcus aureus X400, methicillin-resistant strain, agar dilution
[19] = Staphylococcus aureus S13E, agar dilution
[20] = Staphylococcus epidermidis EPI1, agar dilution
[21] = Staphylococcus epidermidis EPI2, agar dilution
[22] = Mycoplasma gallisepticum, broth-dilution microtiter
[23] = Mycoplasma hyorhinis, broth-dilution microtiter
[24] = Streptococcus pyogenes C203, agar dilution

Structure (SMILES) | MIC [1, 16] | MIC [2, 17] | MIC [3, 18] | MIC [4, 19] | MIC [5, 20] | MIC [6, 21] | MIC [7] | MIC [8] | MIC (Streptococcus Group 9960) | MIC ([9]; agar dilution) | MIC ([10]; agar dilution) | MIC (Staphylococcus aureus; broth-dilution microtiter) | MIC (Streptococcus bovis 80) | MIC [11] | MIC [12] | MIC [13] | MIC (Mycoplasma gallisepticum; [22]) | MIC (Mycoplasma hyorhinis; [23]) | ED50, Oral [14] | MIC [15, 24] | other results
CCC(=O)OC1C(OC2C(CCN3C(=O)c4ccccc4C3=O)CC(C)C(=O)C=CC(C)=CC(COC3OC(C)C(O)C(OC)C3OC)C(CC)OC(=O)CC(O)C2C)OC(C)C(OC2CC(C)(O)C(O)C(C)O2)C1N(C)C (stereo not drawn) [Compound 62, 20-DH-DO-20-N-Phthalimido-2'-O-propionyltylosin] | 1 µg/mL (≈ 0.906 µM) | 1 µg/mL (≈ 0.906 µM) | 2 µg/mL (≈ 1.81 µM) | 1 µg/mL (≈ 0.906 µM) | 1 µg/mL (≈ 0.906 µM) | 1 µg/mL (≈ 0.906 µM) | 2 µg/mL (≈ 1.81 µM) | -- (Not active at 128 mcg/ml, the highest level tested) | -- (Not active at 128 mcg/ml, the highest level tested) | -- (Not active at 128 mcg/ml, the highest level tested) | -- (Not active at 128 mcg/ml, the highest level tested) | 3.12 µg/mL (≈ 2.83 µM) | 12.5 µg/mL (≈ 11.3 µM) | -- (Not active at 50 mcg/ml, the highest level tested) | -- (Not active at 50 mcg/ml, the highest level tested) | -- (Not active at 50 mcg/ml, the highest level tested) | 1.56 µg/mL (≈ 1.41 µM) | 50 µg/mL (≈ 45.3 µM) | 66 mg/kg × 2 |  | ED50, Subcutaneous [14]: > 6.3 mg/kg × 2
CCC1OC(=O)CC(O)C(C)C(OC2OC(C)C(OC3CC(C)(O)C(O)C(C)O3)C(N(C)C)C2O)C(CCI)CC(C)C(=O)C=CC(C)=CC1COC1OC(C)C(O)C(O)C1OC (stereo not drawn) [Compound 52, 20-DH-DO-20-Iodomacrocin] |  |  |  |  |  |  |  |  |  |  |  |  |  |  |  |  |  |  |  |  | MIC ([1]; Staphylococcus aureus, X1.1): 2 µg/mL (≈ 1.97 µM); MIC ([2]; Staphylococcus aureus, V41): 2 µg/mL (≈ 1.97 µM); MIC ([3]; Staphylococcus aureus, X400): 8 µg/mL (≈ 7.89 µM); MIC ([4]; Staphylococcus aureus, S13E): 4 µg/mL (≈ 3.94 µM); MIC ([5]; Staphylococcus epidermidis, EPI1): 2 µg/mL (≈ 1.97 µM); MIC ([6]; Staphylococcus epidermidis, EPI2): 2 µg/mL (≈ 1.97 µM); MIC ([15]; Streptococcus pyogenes, C203): 4 µg/mL (≈ 3.94 µM); MIC ([7]; read-out: MIC): 16 µg/mL (≈ 15.8 µM); MIC ([8]; read-out: MIC): 128 µg/mL (≈ 126 µM); MIC (Streptococcus Group 9960; GROUP9960, read-out: MIC): 128 µg/mL (≈ 126 µM); MIC ([9]; read-out: MIC): > 128 µg/mL; MIC ([10]; read-out: MIC): > 128 µg/mL; MIC (Staphylococcus aureus): 12.5 µg/mL (≈ 12.3 µM); MIC (Streptococcus bovis 80; Streptococcus equinus, read-out: MIC): 50 µg/mL (≈ 49.3 µM); MIC ([11]; read-out: MIC): > 50 µg/mL; MIC ([12]; read-out: MIC): > 50 µg/mL; MIC ([13]; read-out: MIC): > 50 µg/mL; MIC (Mycoplasma gallisepticum; Mycoplasmoides gallisepticum): 3.12 µg/mL (≈ 3.08 µM); MIC (Mycoplasma hyorhinis; Mycoplasma): 50 µg/mL (≈ 49.3 µM)
CCC1OC(=O)CC(O)C(C)C(OC2OC(C)C(OC3CC(C)(O)C(O)C(C)O3)C(N(C)C)C2O)C(CCOc2ncnc3ccccc23)CC(C)C(=O)C=CC(C)=CC1COC1OC(C)C(O)C(OC)C1OC (stereo not drawn) [Compound 19a] | 0.5 µg/mL (≈ 0.478 µM) | 0.5 µg/mL (≈ 0.478 µM) | 1 µg/mL (≈ 0.956 µM) | 0.5 µg/mL (≈ 0.478 µM) | 1 µg/mL (≈ 0.956 µM) | 0.5 µg/mL (≈ 0.478 µM) | 4 µg/mL (≈ 3.82 µM) | 32 µg/mL (≈ 30.6 µM) | 64 µg/mL (≈ 61.2 µM) | 128 µg/mL (≈ 122 µM) | -- (Not active at 128 mcg/ml, the highest level tested) |  |  |  |  |  |  |  |  | 4 µg/mL (≈ 3.82 µM) | 
CCC(=O)OC1C(OC2C(CCCl)CC(C)C(=O)C=CC(C)=CC(COC3OC(C)C(O)C(OC)C3OC)C(CC)OC(=O)CC(O)C2C)OC(C)C(OC2CC(C)(O)C(O)C(C)O2)C1N(C)C (stereo not drawn) [Compound 63, 20-DH-DO-20-Chloro-2'-O-propionyltylosin] | 1 µg/mL (≈ 1.01 µM) | 1 µg/mL (≈ 1.01 µM) | 2 µg/mL (≈ 2.01 µM) | 1 µg/mL (≈ 1.01 µM) | 1 µg/mL (≈ 1.01 µM) | 1 µg/mL (≈ 1.01 µM) | 16 µg/mL (≈ 16.1 µM) | -- (Not active at 128 mcg/ml, the highest level tested) | -- (Not active at 128 mcg/ml, the highest level tested) | -- (Not active at 128 mcg/ml, the highest level tested) | -- (Not active at 128 mcg/ml, the highest level tested) | 6.25 µg/mL (≈ 6.3 µM) | 25 µg/mL (≈ 25.2 µM) | -- (Not active at 50 mcg/ml, the highest level tested) | -- (Not active at 50 mcg/ml, the highest level tested) | -- (Not active at 50 mcg/ml, the highest level tested) | 1.56 µg/mL (≈ 1.57 µM) | 50 µg/mL (≈ 50.4 µM) | 22 mg/kg × 2 | 0.5 µg/mL (≈ 0.504 µM) | ED50, Subcutaneous [14]: > 6.3 mg/kg × 2
CCC1OC(=O)CC(O)C(C)C(OC2OC(C)C(O)C(N(C)C)C2O)C(CCNC(=O)COc2ccccc2)CC(C)C(=O)C=CC(C)=CC1COC1OC(C)C(O)C(OC)C1OC (stereo not drawn) [Compound 51c, 20-DH-DO-20-(N-phenoxyacetyl)aminodesmycosin] | 0.25 µg/mL (≈ 0.276 µM) | 0.25 µg/mL (≈ 0.276 µM) | 0.5 µg/mL (≈ 0.551 µM) | 0.25 µg/mL (≈ 0.276 µM) | 0.25 µg/mL (≈ 0.276 µM) | 0.12 µg/mL (≈ 0.132 µM) | 0.25 µg/mL (≈ 0.276 µM) | 1 µg/mL (≈ 1.1 µM) | 1 µg/mL (≈ 1.1 µM) | 8 µg/mL (≈ 8.82 µM) | 8 µg/mL (≈ 8.82 µM) |  |  |  |  |  |  |  |  | 0.25 µg/mL (≈ 0.276 µM) | 
